Measurements from paper PMC9869995, “Discovery of benzochromene derivatives first example with dual cytotoxic activity against the resistant cancer cell MCF-7/ADR and inhibitory effect of the P-glycoprotein expression levels” (Journal of Enzyme Inhibition and Medicinal Chemistry, 2023).

Assays:
HepG-2 = assay: MTT cell viability assay, HepG-2; type: cell-based; conditions: Homo sapiens, HepG2, 24 h incubation, mean ± standard error
From the text: (§1) According to previous reports regarding the cytotoxic features of a numerous array of benzochromene scaffolds, compounds 4a − z have been elected to explore their cytotoxic ability against three tumour cell lines, including HCT-116 (colon cancer), MCF-7 (breast cancer), and HepG-2 (hepatocellular cancer), and employing the 3–(4,5-dimethylthiazol-2-yl)-2,5-diphenyl tetrazolium bromide (MTT) colorimetric assay as described in literature. Judges choice of such cell lines has been stimulated by the acknowledged antitumor performance of a substantial number of 1H-benzo[f]chromene and 4H-benzo[h]chromene molecules towards the asserted cell lines. […] Moreover, benzochromene derivatives with highly cytotoxic behaviour, 4a − d, 4g, 4i, 4k, 4n, 4q, 4 u, and 4w, are subjected to further inspection against ADR-resistant human breast cancer cells (MCF-7/ADR) and the two normal cell lines, HFL-1 and human diploid fibroblasts (WI-38). […] Also, the results are illustrated in Table 4.
(§2) The tumour cell lines MCF-7, HepG-2, and […] were obtained from the American Type Culture Collection (ATCC, Rockville, MD). The cells were grown on RPMI-1640 medium supplemented with 10% inactivated foetal calf serum and 50 µg/mL gentamycin. The cells were maintained at 37 °C in a humidified atmosphere with 5% CO2 and were subculture two to three times a week.
(§3) The cytotoxic activity was appraised, using the 3–(4,5-dimethylthiazol-2-yl)-2,5-diphenyl-tetrazolium bromide (MTT) colorimetric assay, as reported previously[57] and ELISA assay for MCF-7/ADR[75].

MCF-7 = assay: MTT cell viability assay, MCF-7; type: cell-based; conditions: Homo sapiens, MCF7, 24 h incubation, mean ± standard error
From the text: as §1, §2, §3

HCT-116 = assay: MTT cell viability assay, HCT-116; type: cell-based; conditions: Homo sapiens, 24 h incubation, mean ± standard error
From the text: as §1, §3

WI-38 = assay: Cytotoxicity against normal cell line WI-38; type: cell-based; conditions: Homo sapiens, 24 h, mean ± standard error
From the text: as §1, §3

HFL-1 = assay: Cytotoxicity against normal cell line HFL-1; type: cell-based; conditions: Homo sapiens, HFL1, 24 h, mean ± standard error
From the text: as §1, §3

MCF-7/ADR = assay: Cytotoxicity against ADR-resistant breast cancer cells; type: cell-based, human; conditions: 24 h exposure, mean ± standard error
From the text: as §1, §3

[1] = Homo sapiens, NCI/ADR-RES, 24 h

| SMILES | IC50 (HepG-2) [µM] | melting point [°C] | IC50 (MCF-7) [µM] | IC50 (HCT-116) [µM] | IC50 (WI-38) [µM] | IC50 (HFL-1) [µM] | IC50 (MCF-7/ADR; [1]) [µM] | IC50 (MCF-7/ADR) [µM] |
| --- | --- | --- | --- | --- | --- | --- | --- | --- |
| COc1ccc2ccc3c(c2c1)C(c1ccc(OC)c(OC)c1OC)C(C#N)=C(N)O3 (centres unmarked) [4x, 3-Amino-1–(2,3,4-trimethoxyphenyl)-9-methoxy-1H-benzo[f]chromene-2-carbonitrile] | 59.7 ± 0.3 | 239 to 240 | 96.1 ± 0.6 | 36.6 ± 0.1 | – | – | – | – |
| COc1ccc2ccc3c(c2c1)C(c1ccccc1Br)C(C#N)=C(N)O3 (centres unmarked) [4e, 3-Amino-1–(2-bromophenyl)-9-methoxy-1H-benzo[f]chromene-2-carbonitrile] | 4.9 ± 0.2 | 273 to 275 | 8.3 ± 0.6 | 5.9 ± 0.4 | 59.1 ± 1.1 | 49.5 ± 1.1 | – | – |
| COc1ccc2ccc3c(c2c1)C(c1ccc(Br)cc1)C(C#N)=C(N)O3 (centres unmarked) [4g, 3-Amino-1–(4-bromophenyl)-9-methoxy-1H-benzo[f]chromene-2-carbonitrile] | 2 ± 0.1 | 252 to 253 | 5.6 ± 0.1 | 2.2 ± 0.1 | 69 ± 1.1 | 65.3 ± 0.1 | 19.6 ± 1 | – |
| COc1ccc2ccc3c(c2c1)C(c1ccc(I)cc1)C(C#N)=C(N)O3 (centres unmarked) [4h, 3-Amino-1–(4-iodophenyl)-9-methoxy-1H-benzo[f]chromene-2-carbonitrile] | 39.2 ± 0.2 | 227 to 228 | 48.4 ± 0.1 | 27.7 ± 0.3 | – | – | – | – |
| CC[C@]1(O)C[C@@H]2CN(CCc3c([nH]c4ccccc34)[C@@](C(=O)OC)(c3cc4c(cc3OC)N(C)[C@H]3[C@@](O)(C(=O)OC)[C@H](OC(C)=O)[C@]5(CC)C=CCN6CC[C@]43[C@@H]65)C2)C1 [Vinblastine, reference compound] | 5.7 ± 0.1 | – | 7.5 ± 0.03 | 3.2 ± 0.1 | – | – | – | – |
| COc1ccc2ccc3c(c2c1)C(c1c(F)cccc1Cl)C(C#N)=C(N)O3 (centres unmarked) [4t, 3-Amino-1–(2-chloro-6-fulorophenyl)-9-methoxy-1H-benzo[f]chromene-2-carbonitrile] | 48.1 ± 1.3 | 292 to 294 | 100 ± 1.3 | 96.5 ± 2 | – | – | – | – |
| COc1ccc2ccc3c(c2c1)C(c1c(Cl)cccc1Cl)C(C#N)=C(N)O3 (centres unmarked) [4p, 3-Amino-1–(2,6-dichlorophenyl)-9-methoxy-1H-benzo[f]chromene-2-carbonitrile] | 25.9 ± 0.3 | 321 to 322 | 41.5 ± 0.1 | 18.9 ± 0.2 | – | – | – | – |
| COc1ccc2ccc3c(c2c1)C(c1cc(Cl)ccc1Cl)C(C#N)=C(N)O3 (centres unmarked) [4o, 3-Amino-1–(2,5-dichlorophenyl)-9-methoxy-1H-benzo[f]chromene-2-carbonitrile] | 46.6 ± 0.1 | 268 to 269 | 3.8 ± 0.3 | 8.3 ± 0.2 | – | – | – | – |
| COc1ccc(C2C(C#N)=C(N)Oc3ccc4ccc(OC)cc4c32)c(OC)c1 (centres unmarked) [4v, 3-Amino-1–(2,4-dimethoxyphenyl)-9-methoxy-1H-benzo[f]chromene-2-carbonitrile] | 93.2 ± 0.2 | 218 to 220 | 100 ± 0.2 | 49.9 ± 0.5 | – | – | – | – |
| COc1ccc2ccc3c(c2c1)C(c1cc(Br)ccc1Br)C(C#N)=C(N)O3 (centres unmarked) [4r, 3-Amino-1–(2,5-dibromophenyl)-9-methoxy-1H-benzo[f]chromene-2-carbonitrile] | 6.8 ± 0.5 | 260 to 262 | 4.9 ± 0.5 | 5.3 ± 0.4 | 33.9 ± 0.4 | 38.1 ± 0.2 | – | – |
| COc1ccc2ccc3c(c2c1)C(c1cc(Br)cc(Br)c1OC)C(C#N)=C(N)O3 (centres unmarked) [4z, 3-Amino-1–(3,5-dibromo-2-methoxyphenyl)-9-methoxy-1H-benzo[f]chromene-2-carbonitrile] | 3.5 ± 0.2 | 263 to 264 | 5.8 ± 0.04 | 6.8 ± 0.1 | 39.6 ± 0.4 | 33.3 ± 0.1 | – | – |
| COc1ccc2ccc3c(c2c1)C(c1cccc(Cl)c1Cl)C(C#N)=C(N)O3 (centres unmarked) [4m, 3-Amino-1–(2,3-dichlorophenyl)-9-methoxy-1H-benzo[f]chromene-2-carbonitrile] | 11.8 ± 0.2 | 310 to 311 | 9.1 ± 0.2 | 42 ± 0.2 | – | – | – | – |
| COc1ccc2ccc3c(c2c1)C(c1ccc(C(F)(F)F)cc1F)C(C#N)=C(N)O3 (centres unmarked) [4u] | 10.6 ± 0.9 | 237 to 239 | 0.2 | 14.7 ± 2.3 | 60.3 ± 0.1 | 55.3 ± 0.1 | 19.7 ± 0.8 | – |
| COc1ccc2ccc3c(c2c1)C(c1cc(OC)c(OC)c(OC)c1)C(C#N)=C(N)O3 (centres unmarked) [4y, 3-Amino-1–(3,4,5-trimethoxyphenyl)-9-methoxy-1H-benzo[f]chromene-2-carbonitrile] | 8.8 ± 0.2 | 260 to 261 | 26.1 ± 0.1 | 15.4 ± 0.1 | 29.9 ± 0.4 | 34.1 ± 0.2 | – | – |
| COc1ccc2ccc3c(c2c1)C(c1ccc(C(F)(F)F)cc1)C(C#N)=C(N)O3 (centres unmarked) [4j, 3-Amino-1–(4-trifluoromethylphenyl)-9-methoxy-1H-benzo[f]chromene-2-carbonitrile] | 5.3 ± 0.1 | 212 to 214 | 26.8 ± 1.8 | 20.2 ± 1.1 | – | – | – | – |
| COc1ccc2ccc3c(c2c1)C(c1ccc(C)cc1)C(C#N)=C(N)O3 (centres unmarked) [4i, 3-Amino-1–(4-methylphenyl)-9-methoxy-1H-benzo[f]chromene-2-carbonitrile] | 8.8 ± 0.2 | 245 to 246 | 7 ± 0.1 | 2.9 ± 0.1 | 61.7 ± 0.1 | 71.6 ± 0.3 | 42.8 ± 2.4 | – |
| COc1ccc2ccc3c(c2c1)C(c1c(F)cccc1F)C(C#N)=C(N)O3 (centres unmarked) [4l, 3-Amino-1–(2,6-difluorophenyl)-9-methoxy-1H-benzo[f]chromene-2-carbonitrile] | 28.5 ± 0.4 | 305 to 306 | 15.4 ± 0.2 | 77.7 ± 0.3 | – | – | – | – |
| COc1ccc2ccc3c(c2c1)C(c1ccc(F)cc1)C(C#N)=C(N)O3 (centres unmarked) [4a, 3-Amino-1–(4-fluorophenyl)-9-methoxy-1H-benzo[f]chromene-2-carbonitrile] | 11.3 ± 0.1 | 267 to 268 | 16.5 ± 0.1 | 6.4 ± 0.1 | 56.7 ± 1.1 | 45.1 ± 0.2 | 24.4 ± 1.2 | – |
| COc1ccc2ccc3c(c2c1)C(c1cc(Br)cc(Br)c1)C(C#N)=C(N)O3 (centres unmarked) [4s, 3-Amino-1–(3,5-dibromophenyl)-9-methoxy-1H-benzo[f]chromene-2-carbonitrile] | 13.4 ± 1.1 | 268 to 270 | 13.6 ± 0.2 | 15 ± 2.6 | – | – | – | – |
| COc1ccc2ccc3c(c2c1)C(c1ccc(Cl)cc1Cl)C(C#N)=C(N)O3 (centres unmarked) [4n, 3-Amino-1–(2,4-dichlorophenyl)-9-methoxy-1H-benzo[f]chromene-2-carbonitrile] | 7.3 ± 0.2 | 261 to 262 | 1.8 ± 0.1 | 1.7 ± 0.2 | 61.9 ± 0.3 | 71.7 ± 0.1 | 10.9 to 15.5 | 15.5 ± 0.2 |
| COc1ccc2ccc3c(c2c1)C(c1cccc(Br)c1)C(C#N)=C(N)O3 (centres unmarked) [4f, 3-Amino-1–(3-bromophenyl)-9-methoxy-1H-benzo[f]chromene-2-carbonitrile] | 63.6 ± 3.2 | 263 to 265 | 69.2 ± 0.3 | 11.5 ± 1.1 | – | – | – | – |
